Bounds are passed on as bounds.

System in one series: not given
Assay: not given
The settings on record: Szabo and Dawson 1998; cited from earlier work.
Take `Nc1ccc2oc(=O)ccc2c1I` [5-iodo-6-amino-1,2-benzopyrone]: the side-effects entry is listed as “serious side-effects”.

A further series has as its system MHEC5-T cells. Briefly: Cell protection assay (in vitro), H2O2-induced cell death, Alamar blue. The class given is cell-based. As to conditions: MHEC5-T endothelial cells, 3 mM H2O2, 5 hours; 50% of maximum protection, 10 μM DHCH defined as 100%; read-out: EC50, cell protection (in vitro). As to the method: 2) Test Description Cell Protection Assay (in vitro)
In accordance with a method described by Bowes [Bowes et al., Br. J. Pharmacol., 124, 1760-1766 (1998)], the ability of PARS inhibitors to protect cells against cell death induced by incubation with H2O2 is examined in a cell protection assay. Incubation of endothelial cells with H2O2 results in the generation of DNA strand breaks which in turn activate PARS, resulting in a drastic energy decrease in the cells and in cell death. Living cells are quantified by a fluorimetric redox indicator (Alamar blue), which is converted in the electron transport system of the mitochondria.
Specifically, 7500 MHEC5-T cells/well (DSM ACC 336; German collection of microorganisms and cell cultures) are sown in 4 replications on a 96-well plate. After 24 hours, the cells are incubated with 3 mM aqueous H2O2 solution and differing concentrations of the substances in the presence of 6% by volume of Alamar blue solution in the medium at 37° C. for 5 hours. The reference substance used is 10 μM 1,5-dihydroxyisoquinoline (DHCH) solution. After the incubation, the fluorescence is measured at an excitation wavelength of 530-560 nm and an emission wavelength of 590 nm. The percentage for the cell protection is calculated as the difference between the living cells treated only with H2O2 and the cells treated with H2O2 and PARS inhibitors. The internal standard used is 10 μM DHCH, which is defined as 100% protection. The results obtained for the other substances are compared to this value.
The EC50 values indicate the concentration at which 50% of maximum cell protection is reached, maximum protection by 10 μM DHCH being defined as 100%. DHCH has an EC50 value of 2 μM.
One may read the EC50 as the concentration that produces a half-maximal response. Take `CN(CCCn1c2c(c(=O)[nH]c1=O)CSCC2)S(=O)(=O)c1cccnc1` [Example 59]: the EC50 turned out to be 250 nM.
For the compound `CN(CCCn1c2c(c(=O)[nH]c1=O)CCCC2)S(=O)(=O)c1cccc2nsnc12` [Example 61], the 50% effective concentration (EC50) is 500 nM.
Take `CN(CCCn1c2c(c(=O)[nH]c1=O)CSCC2)S(=O)(=O)c1ccc(F)cc1` [Example 58]: the EC50 was 400 nM.
On to `CN(CCCn1c2c(c(=O)[nH]c1=O)CSCC2)S(=O)(=O)c1ccc2oc(=O)ccc2c1` [Example 57], for which the EC50 stood at 300 nM.
`CN(CCCn1c2c(c(=O)[nH]c1=O)CSCC2)S(=O)(=O)c1ccsc1[N+](=O)[O-]` [Example 67]: the EC50 was found to be 50 nM.
On the same count and under the same terms, the value for `CN(CCCn1c2c(c(=O)[nH]c1=O)CSCC2)S(=O)(=O)c1ccccc1` [Example 2, N-[3-(2,4-Dioxo-3,4,7,8-tetrahydro-2H-thiopyrano[4,3-d]pyrimidin-1(5H)-yl)propyl]-N-methylphenylsulphonamide] was 500 nM.
In the case of `CN(CCCn1c2c(c(=O)[nH]c1=O)CCCC2)S(=O)(=O)c1cccnc1` [Example 55], the EC50 is 400 nM.

The same series, now with this note: MHEC5-T endothelial cells, 3 mM H2O2, 5 hours; reference substance; read-out: EC50 value, cell protection.
`Oc1cccc2c(O)nccc12` [DHCH, 1,5-dihydroxyisoquinoline, reference compound]: the EC50 amounted to 2000 nM.

System in the next series: not given
Assay: not given
Conditions: not given
For orientation: melting point means the temperature of the solid-liquid transition. For the compound `CN(CCCn1c2c(c(=O)[nH]c1=O)CCCC2)S(=O)(=O)c1c(Cl)nc2sccn12` [Example 62], the melting point was above 240 °C.
On to `CN(CCCn1c2c(c(=O)[nH]c1=O)CCCC2)S(=O)(=O)c1cccc2nsnc12` [Example 61], for which the melting point turned out to be 170 °C.
Same read-out and setting: for `CC(=O)Nc1nc(C)c(S(=O)(=O)N(C)CCCn2c3c(c(=O)[nH]c2=O)CCCC3)s1` [Example 63] the value was above 240 °C; for `O=c1[nH]c(=O)n(C2CCCC(NS(=O)(=O)c3ccc([N+](=O)[O-])cc3)C2)c2c1CCCC2` (centres unmarked) [Example 3, N-[3-(2,4-Dioxo-3,4,5,6,7,8-hexahydro-1(2H)-quinazolinyl)cyclohexyl]4-nitrobenzenesulphonamide], above 240 °C; for `O=c1ccc2cc(S(=O)(=O)NC3CCCC(n4c5c(c(=O)[nH]c4=O)CCCC5)C3)ccc2o1` (centres unmarked) [Example 51], above 240 °C.
As for `O=C1CCCN1CCCn1c2c(c(=O)[nH]c1=O)CCCC2` [Example 1, 1-[3-(2-Oxo-1-pyrrolidinyl)propyl]-5,6,7,8-tetrahydro-2,4(1H,3H)-quinazolinedione], the melting point is 189 °C.
`CN(CCCn1c2c(c(=O)[nH]c1=O)CCCC2)S(=O)(=O)c1cn(C)cn1` [Example 65] showed a melting point of 128 °C.

In another series the test system is cytochrome P450.
Assay: not given
As to conditions: Eriksson et al. 1996; cited from earlier work.
Consider `NC(=O)c1cccc(N)c1` [3-aminobenzamide], for which the “inhibition of cytochrome P450 (unspecific PARS inhibitor)” value is listed as “inhibits cytochrome P450”.

Values taken from US6649618B2, “Substituted amidoalkyl-uracils and their use” (Bayer Aktiengesellschaft, priority 2000, dated 2003).
